Experimental data: PubChem BioAssay AID294 (DTP/NCI, 2004)
Values joined by “and” are separate entries in the source; they are usually repeats but may differ in a detail not shown here. Identical values can stand only once.

System: MX-1 breast xenograft, nude mice, tumor weight change
Experiment: NCI In Vivo Anticancer Drug Screen. Data for tumor model Human Mammary Carcinoma MX-1 Xenograft (subcutaneous) in NU/NU Swiss (nude) mice
Conditions: endpoint: optimum tumor weight change, schedule: Q04DX003 (ip), higher = larger tumour
Procedure: The antitumor activity of compounds was measured in mice bearing transplantable tumors. Survival or tumor size were measured and the results are expressed as the measurement made in the treated group (T) divided by the measurement made in the vehicle treated control group (C). The tumor model used in this assay is Human Mammary Carcinoma MX-1 Xenograft (subcutaneous) in NU/NU Swiss (nude) mice

[1] = dose: 16.0 mg/kg/injection, vehicle: saline
[2] = dose: 25.0 mg/kg/injection, vehicle: water
[3] = dose: 200.0 mg/kg/injection, vehicle: suspension in saline
[4] = dose: 400.0 mg/kg/injection, vehicle: suspension in saline
[5] = dose: 400.0 mg/kg/injection, vehicle: saline with Tween-80
[6] = dose: 800.0 mg/kg/injection, vehicle: saline with Tween-80

In the case of CC[C@](O)(C(=O)O)c1cc2n(c(=O)c1CO)Cc1cc3ccccc3nc1-2, the T/C (dose: 4.5 mg/kg/injection, vehicle: saline) was 122 % of control, the T/C (dose: 9.0 mg/kg/injection, vehicle: saline) was 97 % of control and the T/C [1] was 44 % of control. For the same compound, the T/C (dose: 18.0 mg/kg/injection, vehicle: saline) was 59 % of control and the T/C (dose: 36.0 mg/kg/injection, vehicle: saline) was 70 % of control.
With C=CC(=O)N1CN(C(=O)C=C)CN(C(=O)C=C)C1 the T/C (dose: 12.5 mg/kg/injection, vehicle: saline with Tween-80) was 52 % of control.
For CN1N=C(N)c2cn(C3OC(COP(=O)(O)O)C(O)C3O)c3ncnc1c23 (stereo not drawn), the T/C [2] was 102 % of control.
In the case of CC(C)=CCNc1ncnc2c1ncn2C1OC(CO)C(O)C1O (stereo not drawn), the T/C [3] was 39 % of control and the T/C [4] was 77 % of control.
In the case of NC(=S)N/N=C/c1ccc(O)cn1, the T/C (dose: 100.0 mg/kg/injection, vehicle: saline with Tween-80) was 81 % of control, the T/C (dose: 200.0 mg/kg/injection, vehicle: saline with Tween-80) was 46 % of control and the T/C [5] was 39 % of control. The T/C [6] was 73 % of control.
For CCOC(=O)C1C2OC(=O)C(C(=O)C2CN(CCCl)CCCl)C1C1CC=C(CC2=CCC(C3C4C(=O)OC(C(CN(CCCl)CCCl)C4=O)C3C(=O)OCC)CC2)CC1 (stereo not drawn), the T/C (dose: 25.0 mg/kg/injection, vehicle: Klucel (hydroxypropylcellulose) (HPC)) was 58 % of control and the T/C (dose: 100.0 mg/kg/injection, vehicle: Klucel (hydroxypropylcellulose) (HPC)) was 35 % of control.
For Cn1cnc([N+](=O)[O-])c1[Se]c1nc(N)nc2nc[nH]c12, the T/C (dose: 12.5 mg/kg/injection, vehicle: water) was 103 % of control, the T/C [2] was 84 % of control and the T/C (dose: 50.0 mg/kg/injection, vehicle: water) was 60 % of control.
For N=c1ccn2c(n1)OC1C(O)C(CO)OC12 (stereo not drawn), the T/C [3] was 65 % of control, the T/C [4] was 65 % of control and the T/C (dose: 800.0 mg/kg/injection, vehicle: suspension in saline) was 47 % of control.
With Cc1c(N)nc([C@H](CC(N)=O)NC[C@H](N)C(N)=O)nc1C(=O)N[C@H](C(=O)N[C@H](C)[C@@H](O)[C@H](C)C(=O)N[C@H](C(=O)NCCc1nc(-c2nc(C(=O)NCCC[S+](C)C)cs2)cs1)[C@@H](C)O)C(OC1OC(CO)C(O)C(O)C1OC1OC(CO)C(O)C(OC(N)=O)C1O)c1cnc[nH]1 (stereo partly drawn) the T/C (dose: 3.75 mg/kg/injection, vehicle: saline) was 52 % of control, the T/C (dose: 4.0 mg/kg/injection, vehicle: saline) was 55 % of control and the T/C (dose: 7.5 mg/kg/injection, vehicle: saline) was 40 % of control and 41 % of control. The T/C (dose: 8.0 mg/kg/injection, vehicle: saline) was 55 % of control and 67 % of control, the T/C (dose: 15.0 mg/kg/injection, vehicle: saline) was 31 % of control (2×) and 39 % of control and the T/C [1] was 32 % of control and 39 % of control. For the same compound, the T/C (dose: 30.0 mg/kg/injection, vehicle: saline) was 17 % of control and 21 % of control and 25 % of control, the T/C (dose: 32.0 mg/kg/injection, vehicle: saline) was 15 % of control and 22 % of control and 27 % of control and the T/C (dose: 60.0 mg/kg/injection, vehicle: saline) was 13 % of control and 21 % of control. The T/C (dose: 64.0 mg/kg/injection, vehicle: saline) was 16 % of control and 27 % of control.
For Nc1ccc(Cl)cc1N, the T/C [5] was 109 % of control, the T/C [6] was 110 % of control and the T/C (dose: 1600.0 mg/kg/injection, vehicle: saline with Tween-80) was 117 % of control. The T/C (dose: 3200.0 mg/kg/injection, vehicle: saline with Tween-80) was 80 % of control.
With O=Cc1ccc(O)c(O)c1 the T/C (dose: 50.0 mg/kg/injection, vehicle: saline with Tween-80) was 63 % of control and the T/C [5] was 89 % of control.
With COc1cccc2c1C(=O)c1c(O)c3c(c(O)c1C2=O)C[C@@](O)(C(=O)CO)C[C@@H]3OC1CC(N)C(O)C(C)O1 (stereo partly drawn) the T/C (dose: 1.0 mg/kg/injection, vehicle: water) was 97 % of control.
